The source of these data is US11178869B2, “Microbiocidal quinoline (thio)carboxamide derivatives” (priority 2017, dated 2021).

Series [1] has as its system Botryotinia fuckeliana (Botrytis cinerea). The experiment in a line: Botryotinia fuckeliana (Botrytis cinerea) / liquid culture (gray mould). Type of series: cell-based. The following applies: 72 h, read-out: disease control.
In a further series the test system is Gaeumannomyces graminis. The series can be described thus: Gaeumannomyces graminis / liquid culture (take-all of cereals). The format is cell-based. The note with it: compared to untreated control, 4-5 days after application.
The test system of series [2] is Fusarium culmorum. The series can be described thus: whole plant or invertebrate. Type of series: in vivo, Fusarium culmorum on wheat spikelets cv. Monsun. The note with it: in Triticum aestivum, 144 h, read-out: control of Fusarium culmorum.
In series [3] the test system is Monographella nivalis (Microdochium nivale). The series can be described thus: Monographella nivalis (Microdochium nivale) / liquid culture (foot rot cereals). The format is cell-based. The note with it: read-out: disease control.
Series [4] concerns Fusarium culmorum. The series can be described thus: microbe, parasite or virus in culture. Type of series: cell-based. The following applies: read-out: disease control.
Series [5] relates to Glomerella lagenarium (Colletotrichum lagenarium). The experiment in a line: Glomerella lagenarium (Colletotrichum lagenarium) / liquid culture (anthracnose). The format is cell-based. The note with it: Colletotrichum orbiculare, read-out: disease control.
Series [6] concerns Magnaporthe grisea (Pyricularia oryzae). The series can be described thus: microbe, parasite or virus in culture. The format is cell-based. The following applies: read-out: control of Magnaporthe grisea.
[7] abbreviates: 200 ppm, compared to untreated control, growth inhibition photometrically 3-4 days after application.
[8] abbreviates: 200 ppm, compared to untreated control, growth inhibition photometrically 4-5 days after application.

Read-outs that look alike come from different tables or passages of the source.

Broadly, the melting point is the temperature of the solid-liquid transition.

Consider `Cc1ccc(F)cc1C#CC(C)(C)NC(=O)c1cnc2c(F)cccc2c1` [Compound F-24, 8-fluoro-N-[3-(5-fluoro-2-methyl-phenyl)-1,1-dimethyl-prop-2-ynyl]quinoline-3-carboxamide], for which the inhibition of growth at 200 ppm (in series [1] (setting [7]); in series [3] (setting [8]); in the series on Fusarium culmorum [4]; in series [5] (setting [7])) was at least 80% in each case. In the series on Gaeumannomyces graminis, this compound returned an inhibition of growth at 20 ppm of at least 80%. Also, the pest or weed control at 200 ppm in the series with Fusarium culmorum [2] was at least 80%.

`CC(CC#CC1CC1)(CC(F)(F)F)NC(=O)c1cnc2c(F)cccc2c1` (centres unmarked) [Compound E-1, N-[4-cyclopropyl-1-methyl-1-(2,2,2-trifluoroethyl)but-3-ynyl]-8-fluoro-quinoline-3-carboxamide] showed a melting point of 110 to 112 °C. In series [1], the inhibition of growth at 200 ppm is at least 80%. For the same compound, the inhibition of growth at 200 ppm in series [3] was at least 80%. Also, in the series with Fusarium culmorum [4], the inhibition of growth at 200 ppm is at least 80%. Further, in series [5], the inhibition of growth at 200 ppm is at least 80%.

For `CCC(C)(C#Cc1ccccc1)NC(=O)c1cc2cccc(F)c2nc1C` (centres unmarked) [Compound F-16, N-(1-ethyl-1-methyl-3-phenyl-prop-2-ynyl)-8-fluoro-2-methyl-quinoline-3-carboxamide], the inhibition of growth at 200 ppm (in series [1] (setting [7]); in series [3] (setting [8]); in the series on Fusarium culmorum [4]; in series [5] (setting [7])) was at least 80% throughout. Moreover, the pest or weed control at 200 ppm in the series on Fusarium culmorum [2] was at least 80%. The inhibition of growth at 20 ppm in series [6] was at least 80%.

`COc1ccc(Cl)cc1C#CC(C)(C)NC(=O)c1cnc2c(F)cccc2c1` [Compound F-23, N-[3-(5-chloro-2-methoxy-phenyl)-1,1-dimethyl-prop-2-ynyl]-8-fluoro-quinoline-3-carboxamide]: the inhibition of growth at 200 ppm (in series [1] (setting [7]); in series [3] (setting [8]); with Fusarium culmorum [4]; in series [5] (setting [7])) was at least 80% throughout. Further, in the series with Gaeumannomyces graminis, the inhibition of growth at 20 ppm is at least 80%.

For the compound `C#CC(C)(C)NC(=O)c1cnc2c(F)cccc2c1` [Compound F-54, N-(1,1-dimethylprop-2-ynyl)-8-fluoro-quinoline-3-carboxamide], the melting point lay in the range of 148 to 150 °C. The inhibition of growth at 200 ppm in series [3] (setting [8]) was at least 80%. Also, the inhibition of growth at 200 ppm in the series on Fusarium culmorum [4] is at least 80%.

Consider `CC(C)[C@](C)(C#Cc1ccccc1)NC(=O)c1cnc2c(F)cccc2c1` (single isomer, unassigned) [Compound G-8], for which the inhibition of growth at 200 ppm (in series [1] (setting [7]); in series [3] (setting [8]); in the series with Fusarium culmorum [4]; in series [5] (setting [7])) was at least 80% each time. Moreover, the inhibition of growth at 20 ppm (in the series with Gaeumannomyces graminis; in series [6]) was at least 80% each time.

In the case of `CC(C)C[C@H](C#Cc1ccccc1)NC(=O)c1cnc2c(F)cccc2c1` [Compound G-3, 8-fluoro-N-[(1R)-3-methyl-1-(2-phenylethynyl)butyl]quinoline-3-carboxamide], the inhibition of growth at 200 ppm (in series [1] (setting [7]); in series [3] (setting [8]); in the series with Fusarium culmorum [4]; in series [5] (setting [7])) was at least 80% throughout. Further, the inhibition of growth at 20 ppm (in the series on Gaeumannomyces graminis; in series [6]) was at least 80% in each case.

For `Cc1ccccc1C#CC(C)(NC(=O)c1cnc2c(F)cccc2c1)C(C)C` (centres unmarked) [Compound F-13, 8-fluoro-N-[1-isopropyl-1-methyl-3-(o-tolyl)prop-2-ynyl]quinoline-3-carboxamide], the melting point is 138 to 141 °C. Moreover, the inhibition of growth at 200 ppm in series [1] (setting [7]) was at least 80%. In the series with Gaeumannomyces graminis, the inhibition of growth at 20 ppm is at least 80%. Besides, the inhibition of growth at 200 ppm in series [3] (setting [8]) was at least 80%. In addition, the inhibition of growth at 200 ppm in the series with Fusarium culmorum [4] is at least 80%. For the same compound, in series [6], the inhibition of growth at 20 ppm was at least 80%. Moreover, in series [5] (setting [7]), the inhibition of growth at 200 ppm was at least 80%.

In the case of `CCC(C#Cc1ccccc1)(CC)NC(=O)c1cnc2c(F)cccc2c1` [Compound F-6, N-(1,1-diethyl-3-phenyl-prop-2-ynyl)-8-fluoro-quinoline-3-carboxamide], the inhibition of growth at 200 ppm (in series [1] (setting [7]); in series [3] (setting [8]); in the series on Fusarium culmorum [4]; in series [5] (setting [7])) was at least 80% each time. Also, the inhibition of growth at 20 ppm with Gaeumannomyces graminis was at least 80%.

For the compound `CC(C)(C#Cc1ccc(F)cc1F)NC(=O)c1cnc2c(F)cccc2c1` [Compound F-25, N-[3-(2,4-difluorophenyl)-1,1-dimethyl-prop-2-ynyl]-8-fluoro-quinoline-3-carboxamide], the inhibition of growth at 200 ppm (in series [1] (setting [7]); in series [3] (setting [8]); in the series with Fusarium culmorum [4]; in series [5] (setting [7])) was at least 80% each time. Besides, the inhibition of growth at 20 ppm in the series with Gaeumannomyces graminis is at least 80%. Besides, the pest or weed control at 200 ppm with Fusarium culmorum [2] was at least 80%.

`CC(C)C[C@](C)(C#Cc1ccccc1)NC(=O)c1cnc2c(F)cccc2c1` [Compound G-6, N-[(1R)-1,3-dimethyl-1-(2-phenylethynyl)butyl]-8-fluoro-quinoline-3-carboxamide]: the melting point is 128 to 130 °C. Further, in series [1] (setting [7]), the inhibition of growth at 200 ppm is at least 80%. The inhibition of growth at 20 ppm in the series with Gaeumannomyces graminis was at least 80%. Further, the inhibition of growth at 200 ppm in series [3] (setting [8]) is at least 80%. The inhibition of growth at 200 ppm in the series with Fusarium culmorum [4] is at least 80%. In series [6], the inhibition of growth at 20 ppm is at least 80%.

Turning to `O=C(NC(C#Cc1ccccc1)CCC(F)(F)F)c1cnc2c(F)cccc2c1` (centres unmarked) [Compound F-4, 8-fluoro-N-[4,4,4-trifluoro-1-(2-phenylethynyl)butyl]quinoline-3-carboxamide], the inhibition of growth at 200 ppm (in series [1] (setting [7]); in series [3] (setting [8]); in the series on Fusarium culmorum [4]) was at least 80% in each case. Also, the inhibition of growth at 20 ppm (with Gaeumannomyces graminis; in series [6]) was at least 80% each time.

For `Cc1ccc(F)c(C#CC(C)(C)NC(=O)c2cnc3c(F)cccc3c2)c1` [Compound F-45, 8-fluoro-N-[3-(2-fluoro-5-methyl-phenyl)-1,1-dimethyl-prop-2-ynyl]quinoline-3-carboxamide], the inhibition of growth at 200 ppm (in series [1] (setting [7]); in series [3] (setting [8]); in the series with Fusarium culmorum [4]; in series [5] (setting [7])) was at least 80% each time. Further, the pest or weed control at 200 ppm in the series with Fusarium culmorum [2] was at least 80%.

For the compound `CCC(C)(C#Cc1ccccc1C)NC(=O)c1cc2cccc(F)c2nc1C` (centres unmarked) [Compound F-14, N-[1-ethyl-1-methyl-3-(o-tolyl)prop-2-ynyl]-8-fluoro-2-methyl-quinoline-3-carboxamide], the inhibition of growth at 200 ppm (in series [1] (setting [7]); in the series with Fusarium culmorum [4]; in series [5] (setting [7])) was at least 80% in each case. Besides, the pest or weed control at 200 ppm in the series with Fusarium culmorum [2] was at least 80%. Further, in series [6], the inhibition of growth at 20 ppm is at least 80%.

Compound `CC(C)C(C#Cc1ccccc1)NC(=O)c1cnc2c(F)cccc2c1` (centres unmarked) [Compound F-3, 8-fluoro-N-(1-isopropyl-3-phenyl-prop-2-ynyl)quinoline-3-carboxamide] showed a melting point of 156 to 158 °C. Moreover, the inhibition of growth at 200 ppm in series [1] (setting [7]) is at least 80%. Further, in the series with Fusarium culmorum [2], the pest or weed control at 200 ppm is at least 80%. The inhibition of growth at 200 ppm in series [3] (setting [8]) is at least 80%. Moreover, the inhibition of growth at 200 ppm in the series on Fusarium culmorum [4] is at least 80%. In series [6], the inhibition of growth at 20 ppm was at least 80%. The inhibition of growth at 200 ppm in series [5] (setting [7]) was at least 80%.
